The NIST ThermoML archive (doi:10.1016/j.tca.2008.05.002)
Numbers after ± are expanded uncertainties.

Assay: molar heat capacity at saturation pressure
Conditions: Crystal 4, Small (less than 1 g) adiabatic calorimetry

CCCCn1cc[n+](C)c1.O=[N+]([O-])[O-] [1-butyl-3-methylimidazolium nitrate]
molar heat capacity (5.05 K): 0.5514 ± 0.032 J/K/mol
molar heat capacity (5.29 K): 0.65 ± 0.032 J/K/mol
molar heat capacity (5.54 K): 0.7586 ± 0.034 J/K/mol
molar heat capacity (5.8 K): 0.8834 ± 0.036 J/K/mol
molar heat capacity (6.06 K): 1.024 ± 0.04 J/K/mol
molar heat capacity (6.36 K): 1.195 ± 0.042 J/K/mol
molar heat capacity (6.69 K): 1.409 ± 0.046 J/K/mol
molar heat capacity (7.03 K): 1.636 ± 0.04 J/K/mol
molar heat capacity (7.37 K): 1.896 ± 0.054 J/K/mol
molar heat capacity (7.72 K): 2.169 ± 0.058 J/K/mol
molar heat capacity (8.08 K): 2.473 ± 0.064 J/K/mol
molar heat capacity (8.44 K): 2.803 ± 0.068 J/K/mol
molar heat capacity (8.8 K): 3.145 ± 0.074 J/K/mol
molar heat capacity (9.16 K): 3.525 ± 0.08 J/K/mol
molar heat capacity (9.53 K): 3.922 ± 0.087 J/K/mol
molar heat capacity (9.91 K): 4.346 ± 0.093 J/K/mol
molar heat capacity (10.39 K): 4.934 ± 0.1 J/K/mol
molar heat capacity (10.97 K): 5.66 ± 0.11 J/K/mol
molar heat capacity (11.56 K): 6.445 ± 0.12 J/K/mol
molar heat capacity (12.15 K): 7.288 ± 0.13 J/K/mol
molar heat capacity (12.75 K): 8.194 ± 0.14 J/K/mol
molar heat capacity (13.35 K): 9.123 ± 0.16 J/K/mol
molar heat capacity (13.96 K): 10.11 ± 0.17 J/K/mol
molar heat capacity (14.57 K): 11.12 ± 0.18 J/K/mol
molar heat capacity (15.18 K): 12.21 ± 0.19 J/K/mol
molar heat capacity (15.91 K): 13.62 ± 0.21 J/K/mol
molar heat capacity (16.74 K): 15.21 ± 0.23 J/K/mol
molar heat capacity (17.58 K): 16.85 ± 0.24 J/K/mol
molar heat capacity (18.42 K): 18.5 ± 0.26 J/K/mol
molar heat capacity (19.27 K): 20.2 ± 0.26 J/K/mol
molar heat capacity (20.12 K): 21.95 ± 0.28 J/K/mol
molar heat capacity (21.25 K): 24.37 ± 0.3 J/K/mol
molar heat capacity (22.68 K): 27.47 ± 0.32 J/K/mol
molar heat capacity (24.11 K): 30.69 ± 0.34 J/K/mol
molar heat capacity (25.54 K): 33.91 ± 0.36 J/K/mol
molar heat capacity (26.98 K): 37.09 ± 0.36 J/K/mol
molar heat capacity (28.44 K): 40.37 ± 0.36 J/K/mol
molar heat capacity (29.9 K): 43.58 ± 0.38 J/K/mol
molar heat capacity (31.35 K): 46.78 ± 0.34 J/K/mol
molar heat capacity (32.99 K): 50.29 ± 0.36 J/K/mol
molar heat capacity (34.79 K): 54.05 ± 0.38 J/K/mol
molar heat capacity (36.58 K): 57.69 ± 0.38 J/K/mol
molar heat capacity (38.37 K): 61.25 ± 0.4 J/K/mol
molar heat capacity (40.17 K): 64.77 ± 0.42 J/K/mol
molar heat capacity (42.06 K): 68.4 ± 0.44 J/K/mol
molar heat capacity (44.07 K): 72.18 ± 0.46 J/K/mol
molar heat capacity (46.09 K): 75.84 ± 0.48 J/K/mol
molar heat capacity (48.1 K): 79.42 ± 0.5 J/K/mol
molar heat capacity (50.1 K): 82.76 ± 0.52 J/K/mol
molar heat capacity (52.11 K): 86.06 ± 0.52 J/K/mol
molar heat capacity (54.13 K): 89.28 ± 0.54 J/K/mol
molar heat capacity (56.14 K): 92.32 ± 0.56 J/K/mol
molar heat capacity (58.16 K): 95.28 ± 0.58 J/K/mol
molar heat capacity (60.19 K): 98.2 ± 0.58 J/K/mol
molar heat capacity (62.22 K): 101.03 ± 0.6 J/K/mol
molar heat capacity (64.26 K): 103.75 ± 0.62 J/K/mol
molar heat capacity (66.29 K): 106.43 ± 0.62 J/K/mol
molar heat capacity (68.34 K): 109.04 ± 0.64 J/K/mol
molar heat capacity (70.38 K): 111.5 ± 0.66 J/K/mol
molar heat capacity (72.42 K): 113.97 ± 0.66 J/K/mol
molar heat capacity (74.46 K): 116.39 ± 0.68 J/K/mol
molar heat capacity (76.5 K): 118.68 ± 0.68 J/K/mol
molar heat capacity (78.55 K): 120.96 ± 0.7 J/K/mol
molar heat capacity (80.3 K): 122.59 ± 0.7 J/K/mol
molar heat capacity (80.56 K): 122.99 ± 0.72 J/K/mol
molar heat capacity (80.61 K): 123.11 ± 0.72 J/K/mol
molar heat capacity (82.15 K): 124.42 ± 0.72 J/K/mol
molar heat capacity (82.41 K): 124.84 ± 0.72 J/K/mol
molar heat capacity (82.67 K): 125.14 ± 0.72 J/K/mol
molar heat capacity (84.01 K): 126.23 ± 0.72 J/K/mol
molar heat capacity (84.27 K): 126.67 ± 0.72 J/K/mol
molar heat capacity (84.72 K): 127.15 ± 0.74 J/K/mol
molar heat capacity (85.89 K): 128.02 ± 0.74 J/K/mol
molar heat capacity (86.14 K): 128.46 ± 0.74 J/K/mol
molar heat capacity (87.78 K): 129.91 ± 0.74 J/K/mol
molar heat capacity (88.03 K): 130.27 ± 0.74 J/K/mol
molar heat capacity (89.67 K): 131.68 ± 0.76 J/K/mol
molar heat capacity (89.92 K): 132.02 ± 0.76 J/K/mol
molar heat capacity (91.58 K): 133.45 ± 0.72 J/K/mol
molar heat capacity (91.83 K): 133.79 ± 0.74 J/K/mol
molar heat capacity (93.5 K): 135.16 ± 0.74 J/K/mol
molar heat capacity (93.75 K): 135.5 ± 0.74 J/K/mol
molar heat capacity (95.43 K): 136.91 ± 0.74 J/K/mol
molar heat capacity (95.68 K): 137.25 ± 0.74 J/K/mol
molar heat capacity (97.36 K): 138.62 ± 0.76 J/K/mol
molar heat capacity (97.62 K): 138.98 ± 0.76 J/K/mol
molar heat capacity (99.3 K): 140.37 ± 0.76 J/K/mol
molar heat capacity (99.56 K): 140.68 ± 0.76 J/K/mol
molar heat capacity (101.25 K): 142.08 ± 0.76 J/K/mol
molar heat capacity (102.25 K): 142.93 ± 0.76 J/K/mol
molar heat capacity (103.21 K): 143.75 ± 0.78 J/K/mol
molar heat capacity (104.22 K): 144.6 ± 0.78 J/K/mol
molar heat capacity (105.18 K): 145.34 ± 0.78 J/K/mol
molar heat capacity (106.19 K): 146.25 ± 0.78 J/K/mol
molar heat capacity (107.15 K): 146.93 ± 0.78 J/K/mol
molar heat capacity (108.17 K): 147.88 ± 0.78 J/K/mol
molar heat capacity (109.13 K): 148.52 ± 0.78 J/K/mol
molar heat capacity (110.16 K): 149.43 ± 0.8 J/K/mol
molar heat capacity (111.11 K): 150.07 ± 0.8 J/K/mol
molar heat capacity (112.15 K): 150.98 ± 0.8 J/K/mol
molar heat capacity (113.1 K): 151.62 ± 0.8 J/K/mol
molar heat capacity (114.14 K): 152.51 ± 0.8 J/K/mol
molar heat capacity (115.1 K): 153.15 ± 0.8 J/K/mol
molar heat capacity (116.14 K): 154.02 ± 0.83 J/K/mol
